# Test results from patent US20170296550A1, “ARYL SULTAM DERIVATIVES AS RORc MODULATORS” (Genentech, Inc., priority 2013, published 2017).
# Target: T1, RORc (Homo sapiens, UniProt P51449)
# T1 construct: host or cells: E. coli
# T1 sequence (P51449 269-508 limits assumed): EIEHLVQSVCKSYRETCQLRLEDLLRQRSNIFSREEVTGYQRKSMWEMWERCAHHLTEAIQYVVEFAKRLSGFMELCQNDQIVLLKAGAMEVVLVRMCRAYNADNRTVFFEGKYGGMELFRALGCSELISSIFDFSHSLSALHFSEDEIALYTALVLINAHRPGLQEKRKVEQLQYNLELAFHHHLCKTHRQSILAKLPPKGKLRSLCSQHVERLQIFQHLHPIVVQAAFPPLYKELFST
# Assay: In Vitro RORc Ligand Binding Assay (25-[3H]hydroxycholesterol radioligand, filter plate)
# Conditions: RORc ligand binding domain 0.6 ug/mL; 6 nM 25-[3H]hydroxycholesterol; 3 h at 25° C.
# Procedure: Example 68 In Vitro RORc Ligand Binding Assay
# This assay was used to determine a compound's potency in inhibiting activity of RORc by determining, Kiapp, IC50, or percent inhibition values.
# On day of the assay, 100 uL of 0.05% CHAPS (in deionized H2O) was added to all wells of the GFB Unifilter plate and allowed soak for 1 h. A wash buffer of 50 mM HEPES (pH 7.4), 150 mM NaCl, and 5 mM MgCl2 was prepared to wash the filter plate. To prepare an assay buffer, BSA was added to the wash buffer to reach 0.01% and DTT was added to reach 1 mM.
# For IC50 mode, 10 mM compound stocks were serially diluted in DMSO with DMSO to give 20× required final concentration in DMSO (15 uL compound+30 uL DMSO). The 20× compound stocks were diluted in DMSO with Assay Buffer 4-fold to reach 5× the final test concentration in 25% DMSO (10 uL compound+30 uL Assay Buffer). Solutions were mixed by aspiration several times with a pipette set on 50 uL volume. For the assay, 10 uL of 5× compound stock solutions in 25% DMSO were added to the assay plate in duplicate.
# For two point screening, 10 mM stock compound solutions were diluted in DMSO to obtain 200 uM (20× the high test concentration) and then diluted 10-fold further to reach 20 uM (20× the low test concentration). The 20× stocks were diluted 4-fold with Assay Buffer (10 uL compound+30 uL Assay Buffer) to reach 5× the test concentrations (50 uM and 5 uM) and 10 uL were added to two assay plates for the duplicate wells. With each concentration tested on 2 plates, each set of 80 compounds used 4 assay plates (1 uM and 10 uM, with n=2).
# 25-hydroxycholesterol (1 uM) was used to determine the level of NSB signal is prepared in DMSO as for compounds above, then diluted in Assay Buffer to give a final concentration of 5 uM. For 25-hydroxycholesterol in 25% DMSO/75% Assay Buffer; 10 uL per well was used for NSB samples. Wells for Total Binding and No Receptor sample determination contained 10 uL of 25% DMSO/75% Assay Buffer per well.
# Radioligand (25-[^3H]hydroxycholesterol) Preparation
# 25-[^3H]hydroxycholesterol was dilute in Assay Buffer to obtain 15 nM and vortex to mix. Add 20 uL to all wells to reach 6 nM final in the assay.
# Stock receptor solution was diluted in assay buffer to obtain 1.5 ug/mL in Assay Buffer. 20 uL was added to all wells. For No R samples, 20 uL Assay Buffer was substituted for receptor solution.
# Assay plates were 96-well polypropylene V-bottom plates. 10 uL of 5× compound in 25% DMSO/75% Assay Buffer was added to Test wells. 10 uL of 25% DMSO/75% Assay Buffer was added to Total Binding or No Receptor wells. 10 uL of 5 uM 25-hydroxycholesterol in 25% DMSO/75% Assay Buffer was added to NSB wells. 20 uL of 15 nM 25-[^3H]hydroxycholesterol prepared in Assay Buffer was added to all wells. 20 uL of 1.5 ug/mL RORc receptor was added to wells (or […] Assay Buffer to No R wells). Following addition to the wells, the plates were incubated 3 h at 25° C.
# Using a Packard Filtermate Harvester, the filter plate were washed 4 times following transfer of the incubated samples. Plates were dry-filtered completely (2 h at 50° C. or overnight at room temperature). 50 uL Microscint 0 was added to all wells and read on Topcount protocol Inverted.
# Final concentrations were as follows: 50 mM HEPES buffer (pH 7.4); 150 mM NaCl; 1 mM DTT; 5 mM MgCl2; 0.01% BSA; 5% DMSO; 0.6 ug/mL RORc receptor; 6 nM 25-[^3H]hydroxycholesterol. For NSB wells, 1 uM 25-hydroxycholesterol was also present.
row,SMILES,IC50
1,"Cc1cc(NC(=O)c2ccc(CN3[C@@H](C)CCC(c4ccccc4)S3(=O)=O)cc2)n(C)n1 (single isomer, unassigned) [Example 9]",969 nM
2,"Cc1ccnc(COc2ccc(CN3[C@@H](C)CCC(c4ccccc4)S3(=O)=O)cc2)n1 (single isomer, unassigned) [Example 44]",963 nM
3,"Cc1ncccc1COc1ccc(CN2[C@@H](C)CCC(c3ccccc3)S2(=O)=O)cc1 (stereo partly drawn) [Example 52, (3S)-3-Methyl-2-[4-(2-methyl-pyridin-3-ylmethoxy)-benzyl)-6-phenyl-[1,2]thiazinane 1,1-dioxide]",57 nM
4,"Cc1ncsc1CCOc1ccc(CN2[C@@H](C)CCC(c3ccccc3)S2(=O)=O)cc1 (single isomer, unassigned) [Example 61]",151 nM
5,"C[C@H]1CCC(c2ccccc2)S(=O)(=O)N1Cc1ccc(-c2csc(S(C)(=O)=O)n2)cc1F (single isomer, unassigned) [Example 37]",273 nM
6,"Cc1cnccc1COc1ccc(CN2[C@@H](C)CCC(c3ccccc3)S2(=O)=O)cc1 (stereo partly drawn) [Example 47, (3S)-3-Methyl-2-[4-(3-methyl-pyridin-4-ylmethoxy)-benzyl]-6-phenyl-[1,2]thiazinane 1,1-dioxide]",205 nM
7,"C[C@H]1CCC(c2ccccc2)S(=O)(=O)N1Cc1ccc(C(=O)Nc2ccon2)cc1 (stereo partly drawn) [Example 13, N-Isoxazol-3-yl-4-((3S)-3-methyl-1,1-dioxo-6-phenyl-[1,2]thiazinan-2-ylmethyl)-benzamide]",166 nM
8,"C[C@H]1CCC(c2ccccc2)S(=O)(=O)N1Cc1ccc(OCc2ccncc2)cc1 (single isomer, unassigned) [Example 57]",114 nM
9,"C[C@H]1CCC(c2ccccc2)S(=O)(=O)N1Cc1ccc(-c2ccc(C#N)cc2)cc1F (stereo partly drawn) [Example 27, 3′-Fluoro-4′-((3S)-3-methyl-1,1-dioxo-6-phenyl-[1,2]thiazinan-2-ylmethyl)-biphenyl-4-carbonitrile]",102 nM
10,"C[C@H]1CCC(c2ccccc2)S(=O)(=O)N1Cc1ccc(C(=O)NCc2noc(C(=O)N(C)C)n2)cc1 (stereo partly drawn) [Example 15, 3-{[4-((3S)-3-Methyl-1,1-dioxo-6-phenyl-[1,2]thiazinan-2-ylmethyl)-benzoylamino]-methyl}-[1,2,4]oxadiazole-5-carboxylic acid dimethylamide]",5190 nM
11,"C[C@H]1CCC(c2ccccc2)S(=O)(=O)N1Cc1ccc(-c2n[nH]c(S(C)(=O)=O)n2)cc1F (single isomer, unassigned) [Example 42]",2170 nM
12,"C[C@H]1CCC(c2ccccc2)S(=O)(=O)N1Cc1ccc(-c2ccc(S(C)(=O)=O)nc2)cc1F (stereo partly drawn) [Example 39, (3S)-2-[2-Fluoro-4-(6-methanesulfonyl-pyridin-3-yl)-benzyl]-3-methyl-6-phenyl-[1,2]thiazinanc 1,1-dioxide]",151 nM
13,"CC(Oc1ccc(CN2[C@@H](C)CCC(c3ccccc3)S2(=O)=O)cc1)c1cnn(C)c1 (single isomer, unassigned) [Example 45]",693 nM
14,"Cc1cc(NC(=O)c2ccc(CN3[C@@H](C)CCC(c4ccccc4)S3(=O)=O)cc2)n[nH]1 (stereo partly drawn) [Example 11, 4-((3S)-3-Methyl-1,1-dioxo-6-phenyl-[1,2]thiazinan-2-ylmethyl)-N-(5-methyl-1H-pyrazol-3-yl)-benzamidc]",1220 nM
15,"C[C@H]1CCC(c2ccccc2)S(=O)(=O)N1Cc1ccc(OCc2ncccn2)cc1 (stereo partly drawn) [Example 48, (3S)-3-Methyl-6-phenyl-2-[4-(pyrimidin-2-ylmethoxy)-benzyl]-[1,2]thiazinane 1,1-dioxide]",1630 nM
16,"C[C@H]1CCC(c2ccccc2)S(=O)(=O)N1Cc1ccc(C(=O)NCc2ccnn2C)cc1 (stereo partly drawn) [Example 17, 4-((3S)-3-Methyl-1,1-dioxo-6-phenyl-[1,2]thiazinan-2-ylmethyl)-N-(2-methyl-2H-pyrazol-3-ylmethyl)-benzamide]",1980 nM
17,"Cc1cccnc1COc1ccc(CN2[C@@H](C)CCC(c3ccccc3)S2(=O)=O)cc1 (stereo partly drawn) [Example 46, (3S)-3-Methyl-2-[4-(3-methyl-pyridin-2-ylmethoxy)-benzyl]-6-phenyl-[1,2]thiazinane 1,1-dioxide]",153 nM
18,"CC(NC(=O)c1ccc(CN2[C@@H](C)CCC(c3ccccc3)S2(=O)=O)cc1)c1ncc[nH]1 (stereo partly drawn) [Example 18, N-[1-(1H-Imidazol-2-yl)-ethyl]-4-((3S)-3-methyl-1,1-dioxo-6-phenyl-[1,2]thiazinan-2-ylmethyl)-benzamide]",1920 nM
19,"C[C@H]1CCC(c2ccccc2)S(=O)(=O)N1Cc1ccc(-c2cccc(CC(N)=O)c2)cc1F (single isomer, unassigned) [Example 25]",208 nM
20,"C[C@H]1CCC(c2ccccc2)S(=O)(=O)N1Cc1ccc(-c2ccc(S(C)(=O)=O)nn2)cc1F (single isomer, unassigned) [Example 41]",289 nM
21,"C[C@H]1CCC(c2ccccc2)S(=O)(=O)N1Cc1ccc(-c2ccc(C#N)nc2)cc1F (stereo partly drawn) [Example 24, 5-[3-Fluoro-4-((3S)-3-methyl-1,1-dioxo-6-phenyl-[1,2]thiazinan-2-ylmethyl)-phenyl]-pyridine-2-carbonitrilc]",110 nM
22,"C[C@H]1CCC(c2ccccc2)S(=O)(=O)N1Cc1ccc(C(=O)NCc2ccno2)cc1 (stereo partly drawn) [Example 19, N-Isoxazol-5-ylmethyl-4-((3S)-3-methyl-1,1-dioxo-6-phenyl-[1,2]thiazinan-2-ylmethyl)-benzamide]",985 nM
23,"Cc1cc(NC(=O)c2ccc(CN3[C@@H](C)CCC(c4ccccc4)S3(=O)=O)cc2)no1 (stereo partly drawn) [Example 12, 4-((3S)-3-Methyl-1,1-dioxo-6-phenyl-[1,2]thiazinan-2-ylmethyl)-N-(5-methyl-isoxazol-3-yl)-benzamide]",404 nM
24,"C[C@H]1CCC(c2ccccc2)S(=O)(=O)N1Cc1ccc(-c2ccc(NS(C)(=O)=O)cc2)cc1F (stereo partly drawn) [Example 33, N-[3′-Fluoro-4′-((3S)-3-methyl-1,1-dioxo-6-phenyl-[1,2]thiazinan-2-ylmethyl)-biphenyl-4-yl]-methanesulfonamide]",44 nM
25,"C[C@H]1CCC(c2ccccc2)S(=O)(=O)N1Cc1ccc(-c2cccc(S(C)(=O)=O)c2)cc1F (stereo partly drawn) [Example 23, (3S)-2-(3-Fluoro-3′-methanesulfonyl-biphenyl-4-ylmethyl)-3-methyl-6-phenyl-[1,2]thiazinane 1,1-dioxide]",212 nM
26,"Cc1cc(COc2ccc(CN3[C@@H](C)CCC(c4ccccc4)S3(=O)=O)cc2)cc(C)n1 (stereo partly drawn) [Example 54, (3S)-2-[4-(2,6-Dimethyl-pyridin-4-ylmethoxy)-benzyl]-3-methyl-6-phenyl-[1,2]thiazinane 1,1-dioxide]",295 nM
27,"CCS(=O)(=O)c1ccc(-c2ccc(CN3[C@@H](C)CCC(c4ccccc4)S3(=O)=O)c(F)c2)cc1 (stereo partly drawn) [Example 59, (3S)-2-(4′-Ethanesulfonyl-3-fluoro-biphenyl-4-ylmethyl)-3-methyl-6-phenyl-[1,2]thiazinane 1,1-dioxide]",69 nM
28,"C[C@H]1CCC(c2ccccc2)S(=O)(=O)N1Cc1ccc(OCCn2ccnc2)cc1 (stereo partly drawn) [Example 56, (3S)-2-[4-(2-Imidazol-1-yl-ethoxy)-benzyl]-3-methyl-6-phenyl-[1,2]thiazinane 1,1-dioxide]",316 nM
